From US11666570B2, “Diagnosis and regulation of epidermal differentiation and cancer cell activity” (The Board of Trustees of the Leland Stanford Junior …, priority 2019, dated 2023)
Residues, ends and D or L forms follow the SMILES beside them. *: point of attachment. Cbz = O=C(OCc1ccccc1)*

Assays:
Assay type in all cases: cell-based
[1] = test system: oncogenic Ras-transformed human skin organoids; test: Neoplastic invasion in human skin organoids transformed by oncogenic Ras and Cdk4
Excerpt: (§1) As loss of differentiation may be coupled to other cancer-enabling behaviors, we next considered the therapeutic implications of aberrant RET activation in SCC. […] We next used MAB21L4-intact or MAB21L4-ablated primary human keratinocytes to generate skin organoids programmed to undergo invasive neoplasia by oncogenic Ras and Cdk4. These neoplastic tissues were maintained in culture medium containing BLU-667 to investigate the contribution of RET to SCC development.
(§2) To test this, we assessed neoplastic invasion in human skin organoids with BLU-667 added to the culture medium after early malignant transformation occurred. […] Human skin tissues undergoing malignant transformation by enforced expression of oncogenic Ras and Cdk4 were then subjected to BLU-667 treatment following the onset of early neoplastic invasion.
(§3) Human Skin Organoids and Skin Xenografts Generation of human skin organoids was performed as previously described. Briefly, 1×10^6 keratinocytes were seeded onto a 1 cm^2 section of devitalized human dermis and cultured at the air-liquid interface for up to 6 days for differentiation studies. To generate organotypic invasive epidermal neoplasia, devitalized human dermis was populated with human primary fibroblasts at least 1 week prior to keratinocyte seeding. Keratinocytes were transduced with oncogenic HRas as well as Cdk4 and seeded onto fibroblast-containing dermis. Neoplastic tissues were harvested for analysis up to 14 days post-seeding.
Immunofluorescence Human skin organoids were embedded in Optimal Cutting Temperature (OCT) compound (Sakura Finetek) and 7 μm tissue sections were mounted onto polylysine slides (Thermo Scientific). Tissue cryosections were fixed in 100% methanol at −20° C. for 10 min and subsequently permeabilized by incubation with 0.1% Triton X-100 (Sigma-Aldrich) in PBS. The tissues were then incubated for 30 minutes at room temperature with blocking buffer (horse serum diluted 1:10 in PBS) and then for 1 hour with primary antibodies diluted in 0.05% Triton X-100 (Sigma-Aldrich) and 1:100 horse serum in PBS. […]
Images of several zstacks were acquired and the maximum intensity projection image was generated by using the Fiji-ImageJ package. Invasion index was calculated as integrated density of the Keratin 5 staining underneath the basement membrane divided by the length of the basement membrane. Integrated density and basement membrane length were both analyzed using the Fiji-ImageJ package. The invasion depth was calculated as the distance between the basement membrane and the most distant invading cell in each field of view analyzed. The distance between the basement membrane and the most distant invading cell was analyzed in 3 areas of each field of view using the Fiji-ImageJ package and was averaged. […]

RET [2] = target: T1, RET (Homo sapiens, UniProt P07949); test: RET phosphorylation at Y1062 in non-transformed human skin organoids (Western blot); conditions: non-transformed human skin organoids grown 7 days on dermis, BLU-667 15 nM vs DMSO
T1 construct: endogenous in cells; host or cells: human skin organoids from primary human keratinocytes seeded on devitalized human dermis
T1 sequence (P07949 29-1114): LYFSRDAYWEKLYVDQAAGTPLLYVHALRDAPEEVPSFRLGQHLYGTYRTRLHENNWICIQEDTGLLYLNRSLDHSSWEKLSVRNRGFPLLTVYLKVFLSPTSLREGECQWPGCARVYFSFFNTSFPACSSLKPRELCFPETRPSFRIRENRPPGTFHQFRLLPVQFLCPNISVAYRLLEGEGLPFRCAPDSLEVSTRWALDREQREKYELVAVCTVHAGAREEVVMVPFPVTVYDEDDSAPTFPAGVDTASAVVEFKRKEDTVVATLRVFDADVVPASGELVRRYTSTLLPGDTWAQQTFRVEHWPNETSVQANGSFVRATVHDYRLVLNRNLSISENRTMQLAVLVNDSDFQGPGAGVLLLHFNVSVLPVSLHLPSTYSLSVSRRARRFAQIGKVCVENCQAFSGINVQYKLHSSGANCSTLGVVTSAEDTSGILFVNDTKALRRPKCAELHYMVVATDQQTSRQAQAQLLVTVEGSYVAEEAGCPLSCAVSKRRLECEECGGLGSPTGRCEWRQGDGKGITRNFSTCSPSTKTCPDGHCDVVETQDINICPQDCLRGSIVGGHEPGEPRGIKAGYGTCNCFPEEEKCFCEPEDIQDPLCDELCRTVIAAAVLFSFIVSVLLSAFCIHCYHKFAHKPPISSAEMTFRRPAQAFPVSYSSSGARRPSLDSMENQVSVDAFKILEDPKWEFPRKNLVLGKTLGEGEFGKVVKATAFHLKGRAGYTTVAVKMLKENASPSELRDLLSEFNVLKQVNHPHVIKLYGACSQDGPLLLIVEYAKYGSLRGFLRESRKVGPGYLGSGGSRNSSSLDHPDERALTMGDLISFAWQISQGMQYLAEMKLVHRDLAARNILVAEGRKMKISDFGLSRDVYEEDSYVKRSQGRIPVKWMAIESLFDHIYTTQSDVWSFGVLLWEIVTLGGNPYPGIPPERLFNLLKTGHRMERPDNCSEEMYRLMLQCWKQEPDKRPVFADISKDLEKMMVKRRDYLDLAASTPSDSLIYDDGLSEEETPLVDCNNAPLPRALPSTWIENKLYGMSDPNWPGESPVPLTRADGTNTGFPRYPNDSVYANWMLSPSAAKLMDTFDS
Excerpt: as §1
as §3, with “Briefly, 1×10^6 keratinocytes were seeded onto a 1 cm^2 section of devitalized human dermis and cultured at the air-liquid interface for up to 6 days for differentiation studies.” left out
Western Blotting Cells and organoids were both lysed in RIPA buffer (Thermo Fisher Scientific) supplemented with phosphatase inhibitor and protease inhibitor cocktails (Sigma-Aldrich). For human skin organoids, the epidermis was separated from the dermis, immersed in RIPA buffer, and subjected to 4 cycles of disruption using the gentleMACS Dissociator (Miltenyi Biotec). […]

human skin organoids = test: Stratification and epidermal thickness of organotypic human epidermis under BLU-667 (immunofluorescence); conditions: vs vehicle (DMSO)
Excerpt: as §1, §2
as §3, with “Neoplastic tissues were harvested for analysis up to 14 days post-seeding.” left out

RET [3] = test: RET expression in normal human skin organoids treated with proteasome inhibitor (Western blot); conditions: normal skin organoids grown 3 days on dermis, MG132 20 μM for 12 hrs vs DMSO
Excerpt: Given the proximity of CacyBP and RET, we wondered whether RET stability in the skin might be regulated by ubiquitination. Fluorescent PLA signal generated by RET and ubiquitin proximity was abolished in MAB21L4-ablated epidermis using two independent sgRNAs (FIG. 5f,g). […] Loss of MAB21L4, such as occurs in cancer, would stabilize RET by preventing its Siah1-mediated degradation and may explain RET upregulation in SCC.
as §3
Western Blotting Cells and organoids were both lysed in RIPA buffer (Thermo Fisher Scientific) supplemented with phosphatase inhibitor and protease inhibitor cocktails (Sigma-Aldrich). […]

[4] = MAB21L4-intact or MAB21L4-ablated Ras/Cdk4 organoids, 7 days in medium containing BLU-667 15 nM
[5] = Ras/Cdk4 organoids, BLU-667 15 nM initiated on day 7 after early invasion, analysed day 14, vs vehicle

CO[C@]1(C(=O)N[C@@H](C)c2ccc(-n3cc(F)cn3)nc2)CC[C@H](c2nc(C)cc(Nc3cc(C)[nH]n3)n2)CC1 [BLU-667]
basement membrane degradation [1, 4]: prevented basement membrane degradation | neoplastic invasion (invasion index) [1, 4]: suppressed invasion accelerated by MAB21L4 loss | keratinocytes below the basement membrane (invasion index), established invasion [1, 5]: fewer keratinocytes below the basement membrane | tumor infiltration depth (invasion depth), established invasion [1, 5]: reduction in tumor infiltration depth | RET phosphorylation at Y1062 (suppression of RET signaling) (RET [2]): reduction in RET phosphorylation at Y1062 | epidermal stratification and thickness (human skin organoids; late-onset treatment: BLU-667 15 nM initiated on day 7, 14 days of growth): did not adversely affect epidermal stratification and thickness | stratification and epidermal thickness (human skin organoids; organoids cultured in continuous presence of BLU-667 15 nM, 7 days): did not differ substantially from vehicle controls

CC(C)C[C@@H](C=O)NC(=O)[C@H](CC(C)C)NC(=O)[C@H](CC(C)C)NC(=O)OCc1ccccc1 [MG132] (Cbz-Leu-Leu-Leu-aldehyde)
RET expression (RET [3]): RET accumulation
